Assays:
[1] = Coffee mug cross section analysis of brewed cup, 1:10 oil/TM mix underneath the filter; format: physicochemical; conditions: 1:10 oil/TM mix underneath filter
Procedure: This example investigated how THC was interacting with the coffee mug after it had been brewed. A cup of coffee was brewed with the 1:10 oil/TM mix placed in the K-Cup underneath the filter containing coffee grounds.
Two separate aliquots were taken from the cup (top and middle), and then coffee was carefully poured out. Methanol was added to the cup and the oil that had condensed to the sides of the cup was dissolved and quantified.

[2] = cited from earlier work

CCCCCc1cc(O)c2c(c1)OC(C)(C)[C@@H]1CCC(C)=C[C@@H]21 [THC, delta-9-tetrahydrocannabinol]
THC found in the oily coffee film at the top of the cup [1]: 20-25%
THC in the coffee [1]: approximately 60%
THC lost (unknown cause) [1]: 20%
THC in a 200 mL cup of coffee at aqueous solubility [2]: 0.6 mg
